The text below walks through data of patent US5049551A, “5-fluorouracil, 2'-deoxy-5-fluorouridine and 1-carbomoyl-5-fluorouracil compounds” (UBE Industries, Ltd., priority 1989, dated 1991).

As a reminder, the LD50 is the dose at which mortality reaches 50%.

Data set [1] has as its system KB cell. The experiment in a line: Cell proliferation inhibition, KB cells, Pharmacological test example 2. In kind it is cell-based. The following applies: Homo sapiens, 5×10^3 planted, compound added after 24 hours, 5 days culture, read-out: IC50 (50% cell proliferation inhibiting concentration). As for the experimental part:
To a microwell having 9 holes were planted KB cell with 5×10^3, respectively, and after 24 hours, the compound of the present invention obtained in Example 7 and 5-fluorouracil were added. After cultivating for 5 days, the number of cells were measured and from a cell proliferation inhibiting ratio-concentration curve, 50% cell proliferation inhibiting concentration (IC50 value) at which the inhibiting ratio becomes 50% was evaluated.

Data set [2] in a line: Acute toxicity, oral, Pharmacological test example 3. The settings on record: in vivo, 7 week-old BDF2 female mouse, 21 days after administration, read-out: ID50 (LD50 from mortality). The protocol:
The compounds of the present invention obtained in Examples 4 and 7 were orally administered to 7 week-old BDF2 female mouse (10 mice per group). After 21 days from the administration, mortality of the mice was judged and LD50 value was evaluated from mortality according to the Richfield-Wilcokson method.

In data set [3] the test system is KB cell. Nature of the data set: Cell proliferation inhibition, KB cells, Pharmacological test example 1. It is filed as cell-based. The settings on record: Homo sapiens, 2×10^4 planted, compound added after 12 hours, 5 days culture, read-out: IC50 (50% cell proliferation inhibiting concentration).
The conditions of data set [4]: background; cited from earlier work.

With `O=c1[nH]cc(F)c(=O)[nH]1` [5-Fluorouracil, 5-fluorouracil], the IC50 is 750 nM in data set [1] and 17700 nM in data set [3]. In data set [2], the median lethal dose (LD50) at 504 h is 928 mg/kg. In addition, the antitumor activity entry in data set [4] is on record as “insufficient”. For the same compound, the toxicity result in data set [4] is “potent toxicity”.
As for `CCCCCCNC(=O)n1cc(F)c(=O)[nH]c1=O` [Carmofur, 1-n-hexylcarbamoyl-5-fluorouracil], the “antitumor effects compared with 5-fluorouracil” value in data set [4] is recorded as “inferior to that of 5-fluorouracil”.
In the case of `C[C@H]1O[C@@H](n2cc(F)c(=O)[nH]c2=O)[C@H](O)[C@@H]1O` [Doxifluridine, 5'-deoxy-5-fluorouridine], the “antitumor effects compared with 5-fluorouracil” value in data set [4] is “inferior to that of 5-fluorouracil”.
Regarding `CCCC(CCC)C(=O)NCC(=O)OC[C@H]1O[C@@H](n2cc(F)c(=O)[nH]c2=O)[C@H](OC(=O)CNC(=O)C(CCC)CCC)[C@@H]1OC(=O)CNC(=O)C(CCC)CCC` [Example 1, 2',3',5'-tris-O-[N-(2-n-propyl-n-pentanoyl)-glycyl]-5-fluorouridine], in data set [2], the LD50 at 504 h is ≥ 5000 mg/kg. The IC50 in data set [3] was found to be 2000 nM.
In the same order, the values of `CCCC(CCC)C(=O)NCC(=O)OC[C@H]1O[C@@H](n2cc(F)c(=O)[nH]c2=O)[C@H](O)[C@@H]1OC(=O)CNC(=O)C(CCC)CCC` [Example 4, 3',5'-bis-O-[N-(2n-propyl-n-pentanoyl)-glycyl]-5-fluorouridine] are ≥ 3000 mg/kg and 1800 nM.
Turning to `CCCC(CCC)C(=O)NCC(=O)NCCCCCCNC(=O)n1cc(F)c(=O)[nH]c1=O` [Example 7, 1-[6-[N-(2-n-propyl-n-pentanoyl)glycyl]amino-n-hexylcarbamoyl]-5-fluorouracil], the IC50 in data set [1] stood at 660 nM. Further, in data set [2], the LD50 at 504 h is ≥ 1000 mg/kg.
As for `O=c1[nH]c(=O)n(C2CCCO2)cc1F` (centres unmarked) [Tegafur, 1-(2-tetrahydrofulyl)-5-fluorouracil], the “antitumor effects compared with 5-fluorouracil” value in data set [4] is on record as “inferior to that of 5-fluorouracil”.
